Results reported in patent US20130324530A1 (Novartis AG, priority 2010, published 2013).

Columns and labels:
neointima formation = settings: rats; cited from earlier work
Cdk9/cyclinT1 = Cdk9/cyclinT1 (Homo sapiens, UniProt P50750); assay: Cdk9/CyclinT1 IMAP assay
Chain of Cdk9/cyclinT1 (P50750 whole entry): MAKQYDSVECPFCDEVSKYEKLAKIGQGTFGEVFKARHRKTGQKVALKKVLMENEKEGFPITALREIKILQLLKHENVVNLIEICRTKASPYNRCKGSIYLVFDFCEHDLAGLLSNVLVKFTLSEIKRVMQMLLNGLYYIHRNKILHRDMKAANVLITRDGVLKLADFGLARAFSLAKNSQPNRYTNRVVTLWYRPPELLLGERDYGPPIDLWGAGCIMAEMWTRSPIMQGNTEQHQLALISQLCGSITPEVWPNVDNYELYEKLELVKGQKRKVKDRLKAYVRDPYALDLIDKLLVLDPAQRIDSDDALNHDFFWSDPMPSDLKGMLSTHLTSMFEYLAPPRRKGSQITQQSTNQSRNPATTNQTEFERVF
Chain of Cdk9/cyclinT1 (O60563 whole entry partner): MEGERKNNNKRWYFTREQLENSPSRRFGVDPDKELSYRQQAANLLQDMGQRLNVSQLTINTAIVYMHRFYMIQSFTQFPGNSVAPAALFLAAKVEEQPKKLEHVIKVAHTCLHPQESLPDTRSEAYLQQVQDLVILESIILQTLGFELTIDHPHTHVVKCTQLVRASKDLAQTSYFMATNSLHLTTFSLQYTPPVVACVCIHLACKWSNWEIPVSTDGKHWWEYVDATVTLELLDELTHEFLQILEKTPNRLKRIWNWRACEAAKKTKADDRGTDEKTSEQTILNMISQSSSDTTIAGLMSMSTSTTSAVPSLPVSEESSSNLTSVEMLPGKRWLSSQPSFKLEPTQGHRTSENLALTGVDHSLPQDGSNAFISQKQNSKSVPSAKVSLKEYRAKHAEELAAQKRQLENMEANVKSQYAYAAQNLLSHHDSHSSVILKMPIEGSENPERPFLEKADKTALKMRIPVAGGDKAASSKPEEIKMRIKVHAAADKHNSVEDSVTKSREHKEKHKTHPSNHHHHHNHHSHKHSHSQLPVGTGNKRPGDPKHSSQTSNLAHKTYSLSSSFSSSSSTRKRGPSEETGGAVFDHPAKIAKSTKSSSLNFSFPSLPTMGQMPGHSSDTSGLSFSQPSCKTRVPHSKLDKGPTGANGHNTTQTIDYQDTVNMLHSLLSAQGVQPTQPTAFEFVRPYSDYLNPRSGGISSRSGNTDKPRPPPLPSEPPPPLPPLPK

Compound | IC50 (Cdk9/cyclinT1) [nM] | inhibition of neointima formation (neointima formation)
COc1ccc(CNc2nc(N(CCO)CCO)nc3c2ncn3C(C)C)cc1 [CVT-313] |  | greater than 80%
Clc1cnc(NCC[C@H]2CCCNC2)cc1-c1cncc(NCC2CCOCC2)c1 [Compound 56] | 68 | 
Fc1cccc(CNc2cc(-c3cc(NC4CCCC4)ncc3Cl)cnc2N2CCOCC2)c1 [Compound 66] | 1490 | 
O[C@H]1CC[C@H](Nc2cc(-c3cnc(N4CCOCC4)c(NCc4cccc(F)c4)c3)c(Cl)cn2)CC1 [Compound 53] | 660 | 
N[C@H]1CC[C@H](Nc2cc(-c3cncc(NCC4CCCOC4)c3)c(Cl)cn2)CC1 (some centres unmarked) [Compound 29] | 16 | 
C[C@@H](CO)Nc1cc(-c2cncc(NCC3CCOCC3)c2)c(Cl)cn1 [Compound 67] | 335 | 
N[C@H]1CC[C@H](Nc2cc(-c3cncc(NCc4cccc(F)c4)c3)ccn2)CC1 [Compound 44, N2′-(trans-4-aminocyclohexyl)-N5-(3-fluorobenzyl)-3,4′-bipyridine-2′,5-diamine] | < 8 | 
O[C@H]1CC[C@H](Nc2cc(-c3cnc(F)c(NCC4CCOCC4)c3)c(Cl)cn2)CC1 [Compound 54] | < 8 | 

Further lines, with some results ahead:

IC50 (Cdk9/cyclinT1) [nM] | Compound | inhibition of neointima formation (neointima formation)
< 8 | Clc1cnc(N[C@H]2CC[C@H](NC[C@@H]3CCCO3)CC2)cc1-c1cc(NCC2CCOCC2)cnc1Cl [Compound 65] | 
< 8 | OC[C@H]1CC[C@H](Nc2cc(-c3cnc(Cl)c(NCC4CCOCC4)c3)c(Cl)cn2)CC1 [Compound 80] | 
< 8 | N[C@H]1CC[C@H](Nc2cc(-c3cnc(Cl)c(NCC4CCOCC4)c3)c(Cl)cn2)CC1 [Compound 77, N2′-(trans-4-aminocyclohexyl)-5′,6-dichloro-N5-((tetrahydro-2H-pyran-4-yl)methyl)-3,4′-bipyridine-2′,5-diamine] | 
< 8 | OCCCNc1cc(-c2cncc(NCc3cccc(F)c3)c2)c(Cl)cn1 [Compound 40] | 
7 | CO[C@H](CN[C@H]1CC[C@H](Nc2cc(-c3cc(NCC4CCOCC4)cnc3Cl)c(Cl)cn2)CC1)C(F)(F)F [Compound 72, 2,5′-dichloro-N5-((tetrahydro-2H-pyran-4-yl)methyl)-N2′-(trans-4-((R)-3,3,3-trifluoro-2-methoxypropylamino)cyclohexyl)-3,4′-bipyridine-2′,5-diamine] | 
< 8 | OCCNc1cc(-c2cncc(NCc3cccc(F)c3)c2)c(Cl)cn1 [Compound 30] | 
